Measured values published in BindingDB's records for doi:10.1016/s0960-894x(01)00126-3 (Technische Universität Graz, 2001).

Assay: Tested for inhibitory activity against Beta-glucosidase from Agrobacterium species

| Ki [µM] | SMILES |
| --- | --- |
| 0.0012 | CCN(CC)c1ccc2cc(C(=O)NC[C@H]3N[C@H](CO)[C@H](O)[C@@H]3O)c(=O)oc2c1 [7-Diethylamino-2-oxo-2H-chromene-3-carboxylic acid ((R)-(3R,5S)-3,4-dihydroxy-5-hydroxymethyl-pyrrolidin-2-ylmethyl)-amide] |
| 0.1 | CCCCCCCCCCCC(=O)NC[C@H]1N[C@H](CO)[C@H](O)[C@@H]1O [Dodecanoic acid ((3S,4S,5R)-3,4-dihydroxy-5-hydroxymethyl-pyrrolidin-2-ylmethyl)-amide] |
| 0.15 | O=C(CCc1ccccc1)NC[C@@H]1N[C@H](CO)[C@H](O)[C@@H]1O [N-((3S,4S,5R)-3,4-Dihydroxy-5-hydroxymethyl-pyrrolidin-2-ylmethyl)-3-phenyl-propionamide] |
| 0.55 | O=C(NC[C@H]1N[C@H](CO)[C@H](O)[C@@H]1O)c1cccc2ccccc12 [Naphthalene-1-carboxylic acid ((3S,4S,5R)-3,4-dihydroxy-5-hydroxymethyl-pyrrolidin-2-ylmethyl)-amide] |
